Assay results as given in BindingDB's records for patent US20250382289 (Xizang Haisco Pharmaceutical, 2025).

What follows are compounds tested against Ubiquitin carboxyl-terminal hydrolase 1/WD repeat-containing protein 48 (Homo sapiens, UniProt O94782) (assay: Inhibitory Activity on USP1/UAF1 Enzymology).
Description: Ubiquitin rhodamine 110 was used as a substrate to detect the activity of the deubiquitinating enzyme USP1/UAF1 after drug treatment. The total test system was 20 μl, and the test buffer comprises 50 mM Tris-HCl (pH 7.8), 0.5 mM EDTA, 0.01% Bovine Serum Albumin, 1 mM DTT, and 0.01% Tween-20.

Ubiquitin carboxyl-terminal hydrolase 1/WD repeat-containing protein 48, sequence (O94782 whole entry): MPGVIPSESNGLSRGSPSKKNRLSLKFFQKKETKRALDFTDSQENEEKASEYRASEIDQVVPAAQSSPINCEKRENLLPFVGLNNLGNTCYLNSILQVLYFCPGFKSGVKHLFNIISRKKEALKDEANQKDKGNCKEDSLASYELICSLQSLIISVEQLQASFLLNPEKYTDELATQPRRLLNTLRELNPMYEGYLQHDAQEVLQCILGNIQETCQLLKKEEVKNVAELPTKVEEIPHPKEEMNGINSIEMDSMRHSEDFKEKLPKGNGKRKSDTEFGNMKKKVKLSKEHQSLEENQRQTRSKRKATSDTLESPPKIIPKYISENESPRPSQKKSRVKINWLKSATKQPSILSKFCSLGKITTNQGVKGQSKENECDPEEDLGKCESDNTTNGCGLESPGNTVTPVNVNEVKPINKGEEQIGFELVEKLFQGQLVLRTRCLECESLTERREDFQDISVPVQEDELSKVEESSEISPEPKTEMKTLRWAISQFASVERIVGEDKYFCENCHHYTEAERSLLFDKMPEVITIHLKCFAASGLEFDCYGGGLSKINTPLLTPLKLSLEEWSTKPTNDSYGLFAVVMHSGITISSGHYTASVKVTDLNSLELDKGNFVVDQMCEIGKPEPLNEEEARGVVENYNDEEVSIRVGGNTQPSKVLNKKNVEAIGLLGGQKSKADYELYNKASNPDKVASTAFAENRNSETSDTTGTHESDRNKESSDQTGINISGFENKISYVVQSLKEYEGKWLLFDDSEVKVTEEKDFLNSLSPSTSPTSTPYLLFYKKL
Ubiquitin carboxyl-terminal hydrolase 1/WD repeat-containing protein 48, sequence (Q8TAF3 whole entry, further chain): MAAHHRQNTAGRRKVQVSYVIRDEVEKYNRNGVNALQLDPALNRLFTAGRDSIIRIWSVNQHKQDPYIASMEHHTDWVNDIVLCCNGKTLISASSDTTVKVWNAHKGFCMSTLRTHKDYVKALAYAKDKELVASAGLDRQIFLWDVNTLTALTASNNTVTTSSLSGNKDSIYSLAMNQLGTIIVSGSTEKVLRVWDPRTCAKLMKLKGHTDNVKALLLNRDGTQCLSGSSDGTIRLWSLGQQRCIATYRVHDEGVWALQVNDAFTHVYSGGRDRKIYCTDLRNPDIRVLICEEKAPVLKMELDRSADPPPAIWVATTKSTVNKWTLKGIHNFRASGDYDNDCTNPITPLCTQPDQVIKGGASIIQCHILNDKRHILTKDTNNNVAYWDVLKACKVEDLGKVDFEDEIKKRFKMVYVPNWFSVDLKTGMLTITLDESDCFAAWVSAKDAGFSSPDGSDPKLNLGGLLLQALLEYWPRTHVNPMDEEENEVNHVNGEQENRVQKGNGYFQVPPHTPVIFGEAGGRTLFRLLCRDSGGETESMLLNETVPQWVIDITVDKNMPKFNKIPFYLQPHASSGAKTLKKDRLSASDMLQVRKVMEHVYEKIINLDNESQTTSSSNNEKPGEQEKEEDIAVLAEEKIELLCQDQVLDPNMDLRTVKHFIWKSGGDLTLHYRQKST

IC50, < 20 nM:
Fc1c(-c2c(OC(F)F)ncnc2C2CC2)ncc2cnn(CC34CCC(c5nc(C(F)(F)F)cn5CC5CC5)(CC3)CC4)c12 [US20250382289, Compound 10]
COc1ncnc(C2CC2)c1-c1ncc2cnn(Cc3ccc(-c4nc(C(F)(F)F)c5n4CC4(CC4)C5)cc3)c2c1F [US20250382289, Compound 21]
C#CCn1cc(C(F)(F)F)nc1-c1ccc(Cn2ncc3cnc(-c4c(OC(F)F)ncnc4C4CC4)c(F)c32)cc1 [US20250382289, Compound 18]
CC(C)n1cc(C(F)(F)F)nc1-c1ccc(Cn2ncc3cnc(-c4c(OC(F)F)ncnc4C4CC4)c(F)c32)cc1 [US20250382289, Compound 20]
CC#CCn1cc(C(F)(F)F)nc1-c1ccc(Cn2ncc3cnc(-c4c(OC(F)F)ncnc4C4CC4)c(F)c32)cc1 [US20250382289, Compound 19]
Fc1c(-c2c(OC(F)F)ncnc2C2CC2)ncc2cnn(Cc3ccc(-c4nc(C(F)(F)F)c5n4CC4(CC4)C5)cc3)c12 [US20250382289, Compound 12]
Fc1c(-c2c(OC(F)F)ncnc2C2CC2)ncc2cnn(Cc3ccc(-c4nc(C(F)(F)F)c5n4CC(F)(F)C5)cc3)c12 [US20250382289, Compound 14]
